Results taken from PubChem BioAssay AID1320 (NMMLSC, 2008).
The source made the active and inactive calls. How the calls were made is not given here.

Biological target: Bcl-2-related protein A1 (Homo sapiens) (UniProt Q16548)
Assay: Bfl-1/Bim complex disruptors – biochemical, multiplexed, bead-based flow cytometry, dose response (AID 1320); on percent span (inhibition): test concentration not given here
Conditions: Bim peptide-Bfl-1 binding, fluorescence

Sequence of Bcl-2-related protein A1 (Homo sapiens) (Q16548 whole entry, looked up): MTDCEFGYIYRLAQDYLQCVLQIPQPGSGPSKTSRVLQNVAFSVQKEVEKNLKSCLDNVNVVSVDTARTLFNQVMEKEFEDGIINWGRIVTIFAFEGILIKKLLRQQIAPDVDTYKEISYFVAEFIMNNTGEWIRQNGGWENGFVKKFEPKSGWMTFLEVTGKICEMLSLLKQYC

SMILES | EC50
O=C(N/N=C/c1ccc(O)c(O)c1O)/C(=C/c1ccc([N+](=O)[O-])cc1)NC(=O)c1ccccc1 | 5.22 µM

Same assay, conditions: Bim peptide-Bfl-1 binding, fluorescence, stronger effect = higher value

SMILES | percent span (inhibition)
Cc1ccc(NC(=O)CC2S/C(=N/N=C/c3c[nH]c4ccccc34)NC2=O)cc1 (configuration not stated) | inactive
CCCCCCn1nc(C(=O)Nc2nc3c(s2)CCCC3)c2ccccc2c1=O | inactive
Cc1ccc2nc3c(cc(C(N)=S)c(=N)n3CCCOC(C)C)c(=O)n2c1 | inactive
CCN(CC)c1nc(N)nc(N(c2ccccc2)c2ccccc2)n1 | inactive
O=C(N/N=C/c1ccncc1)c1cccc(NC(=O)c2ccccc2Cl)c1 | inactive
CC(=O)NC(=O)Nc1sc(=S)n(C)c1C | inactive
O=C(NNC(=O)C12CC3CC(CC(C3)C1)C2)c1ccco1 | inactive
O=C(OCC(=O)c1ccc[nH]1)c1ccccc1 | inactive
COc1cc2nc(=S)n(CCCN3CCOCC3)c(N)c2cc1OC | inactive
COc1ccc(C(=S)N2CCCCCC2)cc1 | inactive
C=CCN1C(=O)/C(=C/c2ccsc2)SC1=S | inactive
COCCCn1c(N)c(C(=O)Nc2sc3c(c2C(=O)OC)CCCC3)c2nc3ccccc3nc21 | inactive
O=C(CSc1ccc(-c2ccccc2)nn1)NCc1ccco1 | inactive
Cc1ccc(CC(=O)OCCNC(=O)c2cccnc2)cc1 | inactive
COc1ccccc1NC(=O)CSc1nnc(-c2ccco2)n1Cc1ccco1 | inactive
CC(NCc1ccc(-c2ccccc2)cc1)C(O)c1ccccc1 (configuration not stated) | inactive
Cc1cc(N2CCN(C)CC2)nc2ccc(NC(=S)N3CCC4(CC3)OCCO4)cc12 | inactive
COc1ccc(-c2nnc(SCC(=O)Nc3nc4ccccc4s3)n2C)cc1 | inactive
CCOCCCn1c(N)c(C(=O)Nc2sc3c(c2C(=O)OC)CCCC3)c2nc3ccccc3nc21 | inactive
O=C1c2ccccc2C(=O)N1CN(C(=O)COc1ccc(Cl)cc1Cl)c1cccc(F)c1 | inactive
COC(=O)c1[nH]c2ccccc2c1NC(=O)c1ccccc1[N+](=O)[O-] | inactive
COc1cccc(/C=C2/SC(=O)N(C)C2=O)c1OCc1ccc(C(=O)O)cc1 | inactive
COc1ccc(CC(=O)Nc2ccc3nc(C)sc3c2)cc1OC | inactive

SMILES | percent span (inhibition)
Cc1ccc(-c2nnc(Cc3ccc(Cl)cc3)o2)cc1 | inactive
O=C(NCC1CCCO1)c1ccc2c(=O)n(-c3ccc(F)cc3)c(=S)[nH]c2c1 (configuration not stated) | inactive
COc1ccc(NC(=O)c2ccc3c(c2)NC(=O)CS3)cc1S(=O)(=O)Nc1ccc(Br)cc1 | inactive
O=C(Cc1ccc(-c2ccccc2)cc1)NC1CCCC1 | inactive
CCOC(=O)c1nn(-c2ccccc2)c(C#N)c1N | inactive
CCOCCOc1nc2c(c(=O)n(C)c(=O)n2C)n1CCc1ccccc1 | inactive
Cc1ccc(NC2=C(Cl)C(=O)c3ccccc3C2=O)cc1 | inactive
Cc1cc(NC(=O)CCCC(=O)N(CC(=O)NC2CCCCC2)c2ccccc2)no1 | inactive
CC(/C=C/C(=O)c1ccc(C)cc1)=C\c1ccccc1 | inactive
O=C(O)CC1S/C(=N/N=C/C=C/c2ccccc2[N+](=O)[O-])NC1=O (configuration not stated) | inactive
COc1ccc(N2CC(C(=O)Nc3nnc(SCC(=O)c4ccccc4)s3)CC2=O)cc1 (configuration not stated) | inactive
COc1ccc(NC(=O)c2ccco2)cc1NC(=O)c1ccco1 | inactive
CCOC(=O)c1c2c3c(cccc3[nH]c1=O)C(=O)c1ccccc1-2 | inactive
CC(C)(C)C(=O)NC(NC(=S)Nc1ccc(S(N)(=O)=O)cc1)C(Cl)(Cl)Cl (configuration not stated) | inactive
Cc1[nH]c2ccccc2c1C(=O)COC(=O)c1c(-c2c(F)cccc2Cl)noc1C | inactive
Cc1nn(-c2ccc(Cl)c(Cl)c2)c(C)c1C(=O)O | inactive
O=C(COCC(=O)NCc1ccccc1)NCc1ccccc1 | inactive
CCN1CCN(c2ccc(NC(=O)c3ccc4c(c3)[nH]c(=O)n4Cc3ccc(OC)cc3)cc2)CC1 | inactive
CN1CCN(c2ccccc2N)CC1 | inactive
COc1ccc(C2=Nn3c(nnc3-c3ccccn3)SC2)cc1OC | inactive
COc1ccc(/C=C2\SC(=O)NC2=S)cc1OC | inactive
CN(C)S(=O)(=O)N(CC(=O)Nc1ccccc1C(F)(F)F)c1ccccc1 | inactive
O=C1Nc2ccc([N+](=O)[O-])cc2OC1CCN1CCN(Cc2ccc3c(c2)OCO3)CC1 (configuration not stated) | inactive
